According to PMC9835592, “Allosteric inhibition of Staphylococcus aureus MenD by 1,4-dihydroxy naphthoic acid: a feedback inhibition mechanism of the menaquinone biosynthesis pathway” (Philosophical Transactions of the Royal Society B: …, 2023):
Changes are numbered by the printed parent chain. Like-named read-outs stand apart in the source and are kept apart here.

Key:
Sau strains = experiment: MK-4 growth rescue assay (OD600); assay type: cell-based, Staphylococcus aureus; conditions: 24 h
Sau = tested on: Sau; design: method as in PMID 35091344; conditions: addition to culture medium; cited from earlier work
Mtb-MenD = tested on: Mtb-MenD; design: method as in PMID 32029475; conditions: 0.6 µM Mtb-MenD; read-out: IC50 of DHNA, SEPHCHC activity; cited from earlier work
Sau-MenDATCC 25923 [1] = target: T1, Sau-MenDATCC 25923 (Staphylococcus aureus, UniProt Q5HH40); experiment: UV spectroscopy assay of isochorismate consumption, DHNA inhibition; assay type: biochemical
[2] = tested on: four different Sau strains; experiment: Growth assay with exogenous DHNA in LB medium (OD600); conditions: 37°C, 24 h
Experimental: (§4) Sau and Pseudomonas aeruginosa (electronic supplementary material, table S2) were grown for 18 ± 2 h in 5 ml of LB medium at 37°C and 180 r.p.m. Cultures were then diluted in fresh LB medium to contain 2.7 × 10^6 CFU ml^−1. A Nunc Microwell 96-well flat-bottom plate (Thermo Scientific) was seeded in triplicate (from three independent starter cultures) with 75 µl of each of the diluted cultures and 75 µl of 2× working solutions of DHNA, MK-4 or DHNA + MK-4 (prepared from the following stock solutions: 100 mM DHNA dissolved in dimethyl sulfoxide (DMSO), and 50 mM MK-4 (Sigma-Aldrich) dissolved in 100% ethanol). Plate wells contained a final concentration of 10^6 CFU well^−1 with 0, 50 or 100 µM DHNA for growth assays, or with 0 or 100 µM DHNA supplemented with 337 µM MK-4 for growth rescue assays. Plates were incubated at 37°C and 300 r.p.m. for 24 h. Growth was determined by measuring the OD600 of the cultures every 30 min during the incubation period. Data from biological replicates were averaged and subtracted from blank data (sterile medium with appropriate additives).

[3] = target: Sau-MenDIS1 Lys309Ala mutant (Staphylococcus aureus, UniProt Q2FZL7, K309A); experiment: UV spectroscopy assay of isochorismate consumption, DHNA inhibition
WT Sau-MenDIS1 = WT Sau-MenDIS1 (Staphylococcus aureus, UniProt Q2FZL7); experiment: UV spectroscopy assay of isochorismate consumption (SEPHCHC synthase activity), DHNA inhibition; assay type: biochemical
Sau-MenDIS1 = Sau-MenDIS1 (Staphylococcus aureus, UniProt Q2FZL7); experiment: Intrinsic fluorescence quenching upon DHNA titration; assay type: binding
Experimental: (§1) Intrinsic fluorescence quenching experiments were performed at 25°C with a Varian Cary Eclipse Fluorescence Spectrophotometer (Agilent Technologies) with slits set at 5 nm bandwidth. The excitation wavelength was 290 nm and emission spectra were recorded in the 300–400 nm range. […] For Sau-MenD samples in the presence of the reaction ligands, the enzyme was preincubated with 100 µM ThDP only or 100 µM ThDP and 300 µM oxoglutarate for 45 min at ambient temperature. DHNA (Sigma-Aldrich) was titrated from stock solutions that were prepared in the assay buffer and kept on ice. Following DHNA addition, cuvette contents were mixed immediately and fluorescence intensity was measured.
(§2) The fluorescence intensities obtained at 340 nm were corrected for the dilution factor as well as for inner filter effects using equation (2.1),2.1 Fi corr=Fi dil ×10^Aex+Aem/2, where Fi corr is the corrected value of fluorescence intensity at the titration point, Fi dil is the dilution-corrected fluorescence intensity measured, and Aex and Aem are the absorbance of DHNA at excitation (290 nm) and emission wavelengths (340 nm).
(§3) Corrected intensities were plotted against the DHNA concentration and, to determine the Kd value for DHNA, the resulting data were fitted in GraphPad Prism 9 using equation (2.2),2.2 F=Fmax−(X+Kd+M−(X+Kd+M)^2−4XM)/2M(Fmax−Fmin), where F is the measured fluorescence intensity of Sau-MenD, Fmax is the fluorescence intensity of Sau-MenD in the absence of DHNA, Fmin is the fluorescence intensity when Sau-MenD is saturated with DHNA, M is the micromolar concentration of enzyme used in the assay, X is the micromolar DHNA concentration and Kd is the dissociation constant.

Sau-MenDATCC 25923 [4] = target: T1, Sau-MenDATCC 25923; experiment: as above; assay type: binding; conditions: 1 µM enzyme
Experimental: as §1, §2, §3

[5] = target: Sau-MenDIS1 Lys283Ala mutant (Staphylococcus aureus, UniProt Q5HH40, K283A); experiment: UV spectroscopy assay of isochorismate consumption, DHNA inhibition
[6] = tested on: Sau-MenDIS1 Lys283Ala mutant (Staphylococcus aureus, K283A); experiment: as above; conditions: four-parameter Hill fit; complete CI not determinable, best-fit value to be interpreted with caution
[7] = target: Sau-MenDIS1 Arg98Ala mutant (Staphylococcus aureus, UniProt Q2FZL7, R98A); experiment: as above
Pseudomonas aeruginosa = experiment: Growth assay with exogenous DHNA in LB medium (OD600), control bacterium; conditions: DHNA concentrations up to 150 µM, 37°C, 24 h
Experimental: as §4

[8] = target: the molecule itself; experiment: native MS; protein exchanged from SEC buffer into 2 M ammonium acetate pH 7.4; Sau-MenDIS1 4.7 mg/ml, Sau-MenD ATCC 25923 6.3 mg/ml; gold-coated glass capillaries, Synapt XS, soft ionization
[9] = four-parameter logistic Hill fit of DHNA inhibition
[10] = read-out: activity reduction in the presence of 12.5 µM DHNA

CC(C)=CCC/C(C)=C/CC/C(C)=C/CC/C(C)=C/CC1=C(C)C(=O)c2ccccc2C1=O [MK-4]
effect on growth, MK-4 alone (Sau strains; 337 µM MK-4 (150 µg ml−1), absence of DHNA): slightly impacted the growth
growth rescue of DHNA-treated Sau (Sau strains; 337 µM MK-4 added to medium containing 100 µM DHNA, compared with 100 µM DHNA only): significant growth improvement
effect on susceptibility of Sau to cannabidiol (Sau): prevented cannabidiol-mediated growth impairment

O=C(O)c1cc(O)c2ccccc2c1O [DHNA, 1,4-dihydroxy-2-naphthoic acid]
IC50 (Mtb-MenD): 53 nM
activity reduction in the presence of 12.5 µM DHNA (Sau-MenDATCC 25923 [1]; 12.5 µM DHNA, 0.4 µM enzyme, 100 µM ThDP, 300 µM oxoglutarate, 10 µM isochorismate): 87%
Hill slope (Sau-MenDATCC 25923 [1]; [9]): −0.99
IC50 (Sau-MenDATCC 25923 [1]; read-out: IC50 of DHNA, 0.4 µM enzyme, 100 µM ThDP, 300 µM oxoglutarate, 10 µM isochorismate): 2300 nM
effect on growth ([2]; 50 µM DHNA, all four Sau strains): clearly impaired the growth
effect on growth ([2]; 100 µM DHNA): growth impact was more severe
effect on growth ([2]; 150 µM DHNA, all four Sau): completely inhibited
IC50 [3]: 4.6 µM
Hill slope [3, 9]: −1.0
inhibition at 12.5 µM [3, 10]: 80%
IC50 (WT Sau-MenDIS1; 0.4 µM enzyme, 100 µM ThDP, 300 µM oxoglutarate, 10 µM isochorismate, 30 min preincubation 37°C): 3.7 µM
inhibition at 12.5 µM (WT Sau-MenDIS1; 12.5 µM DHNA, 0.4 µM enzyme, 100 µM ThDP, 300 µM oxoglutarate, 10 µM isochorismate, read-out: activity reduction in the presence of 12.5 µM DHNA): 82%
Hill slope (WT Sau-MenDIS1; [9]): −1.0
Kd (Sau-MenDIS1; + 100 μM ThDP, 1 µM enzyme, read-out: Kd for DHNA): 98 µM
Kd (Sau-MenDIS1; + 100 μM ThDP/300 μM oxoglutarate, 1 µM enzyme, read-out: Kd for DHNA): 58 µM
Kd (Sau-MenDIS1; apo-enzyme, 1 µM enzyme, 25°C, read-out: Kd for DHNA): 110 µM
Kd (Sau-MenDIS1; apo-enzyme, ThDP-bound and ThDP- and oxoglutarate-bound forms, read-out: Kd values for DHNA (span over enzyme forms)): 58 to 110 µM
Kd (Sau-MenDATCC 25923 [4]; + 100 μM ThDP/300 μM oxoglutarate): 67 µM
Kd (Sau-MenDATCC 25923 [4]; apo-enzyme, 25°C): 85 µM
IC50 [5]: > 10 µM
Hill slope [6]: −1.2
IC50 [7]: > 10 µM
Hill slope ([7]; four-parameter Hill fit, complete CI not determinable, best-fit value to be interpreted with caution): −2.3
inhibition at 12.5 µM [7, 10]: 21%
effect on susceptibility of Sau to cannabidiol (Sau): increased the susceptibility
effect on growth (Pseudomonas aeruginosa): unaffected

B1: Staphylococcus aureus IS1 MenD (SEPHCHC synthase), wild type (enzyme, UniProt Q2FZL7 1-557, looked up)
chain: MGNHKAALTKQVFTFASELYAYGVREVVISPGSRSTPLALAFEAHPNIKTWIHPDERSAAFFAVGLIKGSERPVAILCTSGTAAANYTPAIAESQISRIPLIVLTSDRPHELRSVGAPQAINQVNMFNNYVSYEFDMPIADDSKETIDAIYYQMQIASQYLYGPHKGPIHFNLPFRDPLTPDLNATELLTSEMKILPHYQKSIDASALRHILNKKKGLIIVGDMQHQEVDQILTYSTIYDLPILADPLSHLRKFDHPNVICTYDLLFRSGLDLNVDFVIRVGKPVISKKLNQWLKKTDAFQILVQNNDKIDVFPIAPDISYEISANDFFRSLMEDTTVNRVSWLEKWQCLEKKGRKEIKCYLEQATDESAFVGELIKKTSEKDALFISNSMPIRDVDNLLLNKNIDVYANRGANGIDGIVSTALGMAVHKRITLLIGDLSFYHDMNGLLMSKLNNIQMNIVLLNNDGGGIFSYLPQKESATDYFERLFGTPTGLDFEYTAKLYQFDFKRFNSVSEFKNATLLSETSTIYELITNREDNFKQHQILYQKLSEMIHDTL
notes: MenD (SEPHCHC synthase) of Staphylococcus aureus IS1; the structure numbers residues up to 557; Cloned in a modified pET30a by NcoI and HindIII; also called Sau-MenDIS1; Sau-MenD IS1; source: E. coli BL21 (DE3), purified (IMAC, TEV cleavage, subtractive IMAC, SEC); not shown: His6, N-terminal, cleaved
stoichiometry N [8]: 4

B2: Staphylococcus aureus ATCC 25923 MenD (SEPHCHC synthase) (enzyme)
chain: B1 chain with N274K, C349R, L350I, I432V, S512N
stoichiometry N [8]: 4
